Experimental data: patent US20110039721A1, “METHOD FOR PREDICTION ABOUT CARCINOGENICITY OF SUBSTANCE IN RODENT” (Chemicals Evaluation and Research Institute, priority 2007, published 2011)

Columns and labels:
[1] = test system: mRNA expressed from the genes (A) to (D) in rat liver; assay: Behavior of genes (mRNA expression level, oligo-DNA microarray) in rat liver after 28-day oral administration; type: in vivo; settings: for Behavior of gene caused by administration of chemical substance, Gene No. 4846 / Behavior of gene caused by administration of chemical substance, Gene No. 2026 / Behavior of gene caused by administration of chemical substance, Gene No. 4218 / Behavior of gene caused by administration of chemical substance, Gene No. 6182 / Behavior of gene caused by administration of chemical substance, Gene No. 5600: gene group (A); for Behavior of gene caused by administration of chemical substance, Gene No. 4846: Unigene No. Rn.144554; for Behavior of gene caused by administration of chemical substance, Gene No. 2026 / Behavior of gene caused by administration of chemical substance, Gene No. 4218: Unigene No. Rn.167075; for Behavior of gene caused by administration of chemical substance, Gene No. 6182: Unigene No. Rn.5834; for Behavior of gene caused by administration of chemical substance, Gene No. 5600: Unigene No. Rn.9836; for Behavior of gene caused by administration of chemical substance, Gene No. 1494 / Behavior of gene caused by administration of chemical substance, Gene No. 2045 / Behavior of gene caused by administration of chemical substance, Gene No. 2203: gene group (B); for Behavior of gene caused by administration of chemical substance, Gene No. 1494: Unigene No. Rn.1430; for Behavior of gene caused by administration of chemical substance, Gene No. 2045: Unigene No. Rn.19329; for Behavior of gene caused by administration of chemical substance, Gene No. 2203: Unigene No. Rn.21240; for Behavior of gene caused by administration of chemical substance, Gene No. 533 / Behavior of gene caused by administration of chemical substance, Gene No. 725 / Behavior of gene caused by administration of chemical substance, Gene No. 1163 / Behavior of gene caused by administration of chemical substance, Gene No. 4973 / Behavior of gene caused by administration of chemical substance, Gene No. 4095 / Behavior of gene caused by administration of chemical substance, Gene No. 1334 / Behavior of gene caused by administration of chemical substance, Gene No. 6620 / Behavior of gene caused by administration of chemical substance, Gene No. 6303 / Behavior of gene caused by administration of chemical substance, Gene No. 5878 / Behavior of gene caused by administration of chemical substance, Gene No. 1131 / Behavior of gene caused by administration of chemical substance, Gene No. 1562 / Behavior of gene caused by administration of chemical substance, Gene No. 1741 / Behavior of gene caused by administration of chemical substance, Gene No. 893 / Behavior of gene caused by administration of chemical substance, Gene No. 6026 / Behavior of gene caused by administration of chemical substance, Gene No. 154 / Behavior of gene caused by administration of chemical substance, Gene No. 1993 / Behavior of gene caused by administration of chemical substance, Gene No. 813 / Behavior of gene caused by administration of chemical substance, Gene No. 2494 / Behavior of gene caused by administration of chemical substance, Gene No. 2546 / Behavior of gene caused by administration of chemical substance, Gene No. 3776 / Behavior of gene caused by administration of chemical substance, Gene No. 3929 / Behavior of gene caused by administration of chemical substance, Gene No. 1119 / Behavior of gene caused by administration of chemical substance, Gene No. 6742 / Behavior of gene caused by administration of chemical substance, Gene No. 5634: gene group (C); for Behavior of gene caused by administration of chemical substance, Gene No. 533: Unigene No. Rn.106184; for Behavior of gene caused by administration of chemical substance, Gene No. 725: Unigene No. Rn.108075; for Behavior of gene caused by administration of chemical substance, Gene No. 1163: Unigene No. Rn.11766; for Behavior of gene caused by administration of chemical substance, Gene No. 4973: Unigene No. Rn.118529; for Behavior of gene caused by administration of chemical substance, Gene No. 4095: Unigene No. Rn.119024; for Behavior of gene caused by administration of chemical substance, Gene No. 1334 / Behavior of gene caused by administration of chemical substance, Gene No. 6620: Unigene No. Rn.120914; for Behavior of gene caused by administration of chemical substance, Gene No. 6303: Unigene No. Rn.123063; for Behavior of gene caused by administration of chemical substance, Gene No. 5878: Unigene No. Rn.143213; for Behavior of gene caused by administration of chemical substance, Gene No. 1131: Unigene No. Rn.144946; for Behavior of gene caused by administration of chemical substance, Gene No. 1562: Unigene No. Rn.14744; for Behavior of gene caused by administration of chemical substance, Gene No. 1741: Unigene No. Rn.1647; for Behavior of gene caused by administration of chemical substance, Gene No. 893: Unigene No. Rn.164817; for Behavior of gene caused by administration of chemical substance, Gene No. 6026: Unigene No. Rn.167685; for Behavior of gene caused by administration of chemical substance, Gene No. 154: Unigene No. Rn.185941; for Behavior of gene caused by administration of chemical substance, Gene No. 1993: Unigene No. Rn.18728; for Behavior of gene caused by administration of chemical substance, Gene No. 813: Unigene No. Rn.201760; for Behavior of gene caused by administration of chemical substance, Gene No. 2494: Unigene No. Rn.23969; for Behavior of gene caused by administration of chemical substance, Gene No. 2546: Unigene No. Rn.24561; for Behavior of gene caused by administration of chemical substance, Gene No. 3776: Unigene No. Rn.43232; for Behavior of gene caused by administration of chemical substance, Gene No. 3929: Unigene No. Rn.4620; for Behavior of gene caused by administration of chemical substance, Gene No. 1119: Unigene No. Rn.9757; for Behavior of gene caused by administration of chemical substance, Gene No. 6742: Unigene No. Rn.9779; for Behavior of gene caused by administration of chemical substance, Gene No. 5634: Unigene No. Rn.9862; for Behavior of gene caused by administration of chemical substance, Gene No. 5726: gene group (D), Unigene No. Rn.9939
In short: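 Rat liver RNA after 28 days of daily gavage dosing (male F344, 5 weeks old, four per group). A change reaching 1.5-fold, or 1/1.5, against solvent control scores as significant; opposite direction versus another carcinogen scores as not significant.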

liver = settings: classification of the substance (Cr+/Cr−); cited from earlier work
rodent = settings: classification of the substance (C+/C−); cited from earlier work
[2] = classification of the substance (M+/M−); cited from earlier work

CC(=O)Oc1ccccc1C(=O)O [TS071, Aspirin]
Behavior of gene caused by administration of chemical substance, Gene No. 4846 [1]: −
Behavior of gene caused by administration of chemical substance, Gene No. 2026 [1]: −
Behavior of gene caused by administration of chemical substance, Gene No. 4218 [1]: −
Behavior of gene caused by administration of chemical substance, Gene No. 6182 [1]: −
Behavior of gene caused by administration of chemical substance, Gene No. 5600 [1]: −
Behavior of gene caused by administration of chemical substance, Gene No. 1494 [1]: −
Behavior of gene caused by administration of chemical substance, Gene No. 2045 [1]: −
Behavior of gene caused by administration of chemical substance, Gene No. 2203 [1]: −
Behavior of gene caused by administration of chemical substance, Gene No. 533 [1]: −
Behavior of gene caused by administration of chemical substance, Gene No. 725 [1]: −
Behavior of gene caused by administration of chemical substance, Gene No. 1163 [1]: −
Behavior of gene caused by administration of chemical substance, Gene No. 4973 [1]: −
Behavior of gene caused by administration of chemical substance, Gene No. 4095 [1]: −
Behavior of gene caused by administration of chemical substance, Gene No. 1334 [1]: −
Behavior of gene caused by administration of chemical substance, Gene No. 6620 [1]: −
Behavior of gene caused by administration of chemical substance, Gene No. 6303 [1]: −
Behavior of gene caused by administration of chemical substance, Gene No. 5878 [1]: −
Behavior of gene caused by administration of chemical substance, Gene No. 1131 [1]: +
Behavior of gene caused by administration of chemical substance, Gene No. 1562 [1]: −
Behavior of gene caused by administration of chemical substance, Gene No. 1741 [1]: −
Behavior of gene caused by administration of chemical substance, Gene No. 893 [1]: −
Behavior of gene caused by administration of chemical substance, Gene No. 6026 [1]: −
Behavior of gene caused by administration of chemical substance, Gene No. 154 [1]: −
Behavior of gene caused by administration of chemical substance, Gene No. 1993 [1]: −
Behavior of gene caused by administration of chemical substance, Gene No. 813 [1]: −
Behavior of gene caused by administration of chemical substance, Gene No. 2494 [1]: −
Behavior of gene caused by administration of chemical substance, Gene No. 2546 [1]: −
Behavior of gene caused by administration of chemical substance, Gene No. 3776 [1]: −
Behavior of gene caused by administration of chemical substance, Gene No. 3929 [1]: −
Behavior of gene caused by administration of chemical substance, Gene No. 1119 [1]: −
Behavior of gene caused by administration of chemical substance, Gene No. 6742 [1]: −
Behavior of gene caused by administration of chemical substance, Gene No. 5634 [1]: −
Behavior of gene caused by administration of chemical substance, Gene No. 5726 [1]: −
Liver carcinogenicity (liver): Cr−
Carcinogenicity (rodent): C−
Mutagenicity by Ames test [2]: M−

O=C(O)C(Cl)(Cl)Cl [TS051, Trichloroacetic acid]
Behavior of gene caused by administration of chemical substance, Gene No. 4846 ([1]; mRNA vs vehicle control group): −
Behavior of gene caused by administration of chemical substance, Gene No. 2026 ([1]; mRNA vs vehicle control group): −
Behavior of gene caused by administration of chemical substance, Gene No. 4218 ([1]; mRNA vs vehicle control group): −
Behavior of gene caused by administration of chemical substance, Gene No. 6182 ([1]; mRNA vs vehicle control group): −
Behavior of gene caused by administration of chemical substance, Gene No. 5600 ([1]; mRNA vs vehicle control group): −
Behavior of gene caused by administration of chemical substance, Gene No. 1494 ([1]; mRNA vs vehicle control group): −
Behavior of gene caused by administration of chemical substance, Gene No. 2045 ([1]; mRNA vs vehicle control group): −
Behavior of gene caused by administration of chemical substance, Gene No. 2203 ([1]; mRNA vs vehicle control group): −
Behavior of gene caused by administration of chemical substance, Gene No. 533 ([1]; mRNA vs vehicle control group): −
Behavior of gene caused by administration of chemical substance, Gene No. 725 ([1]; mRNA vs vehicle control group): +
Behavior of gene caused by administration of chemical substance, Gene No. 1163 ([1]; mRNA vs vehicle control group): −
Behavior of gene caused by administration of chemical substance, Gene No. 4973 ([1]; mRNA vs vehicle control group): +
Behavior of gene caused by administration of chemical substance, Gene No. 4095 ([1]; mRNA vs vehicle control group): +
Behavior of gene caused by administration of chemical substance, Gene No. 1334 ([1]; mRNA vs vehicle control group): −
Behavior of gene caused by administration of chemical substance, Gene No. 6620 ([1]; mRNA vs vehicle control group): −
Behavior of gene caused by administration of chemical substance, Gene No. 6303 ([1]; mRNA vs vehicle control group): −
Behavior of gene caused by administration of chemical substance, Gene No. 5878 ([1]; mRNA vs vehicle control group): −
Behavior of gene caused by administration of chemical substance, Gene No. 1131 ([1]; mRNA vs vehicle control group): −
Behavior of gene caused by administration of chemical substance, Gene No. 1562 ([1]; mRNA vs vehicle control group): −
Behavior of gene caused by administration of chemical substance, Gene No. 1741 ([1]; mRNA vs vehicle control group): −
Behavior of gene caused by administration of chemical substance, Gene No. 893 ([1]; mRNA vs vehicle control group): −
Behavior of gene caused by administration of chemical substance, Gene No. 6026 ([1]; mRNA vs vehicle control group): −
Behavior of gene caused by administration of chemical substance, Gene No. 154 ([1]; mRNA vs vehicle control group): −
Behavior of gene caused by administration of chemical substance, Gene No. 1993 ([1]; mRNA vs vehicle control group): −
Behavior of gene caused by administration of chemical substance, Gene No. 813 ([1]; mRNA vs vehicle control group): −
Behavior of gene caused by administration of chemical substance, Gene No. 2494 ([1]; mRNA vs vehicle control group): −
Behavior of gene caused by administration of chemical substance, Gene No. 2546 ([1]; mRNA vs vehicle control group): −
Behavior of gene caused by administration of chemical substance, Gene No. 3776 ([1]; mRNA vs vehicle control group): −
Behavior of gene caused by administration of chemical substance, Gene No. 3929 ([1]; mRNA vs vehicle control group): −
Behavior of gene caused by administration of chemical substance, Gene No. 1119 ([1]; mRNA vs vehicle control group): −
Behavior of gene caused by administration of chemical substance, Gene No. 6742 ([1]; mRNA vs vehicle control group): −
Behavior of gene caused by administration of chemical substance, Gene No. 5634 ([1]; mRNA vs vehicle control group): −
Behavior of gene caused by administration of chemical substance, Gene No. 5726 ([1]; mRNA vs vehicle control group): +
Liver carcinogenicity (liver): Cr−
Carcinogenicity (rodent): C+
Mutagenicity by Ames test [2]: M−
